pEC50: −log10 of the molar value. The source made the active and inactive calls. No rule for the calls is given here.
How the values were obtained:
Assay in all cases: GTPase panel nucleotide binding inhibition – biochemical, bead flow cytometry, Mg non-chelator buffer, round 2, SAR follow-up (AID 588622)
Conditions in all cases: bead-based flow cytometry multiplex GTP binding; for % response (lower = inhibition): at 100 µM (top of the series)
[1] = molecular target: RacWT
[2] = molecular target: RacACT
[3] = molecular target: RhoWT
[4] = molecular target: Cdc42WT
[5] = molecular target: Rab7

Row | pEC50 [1] | % response (lower = inhibition) [2] | pEC50 [3] | pEC50 [4] | pEC50 [5] | pEC50 [2] | % response (lower = inhibition) [1] | % response (lower = inhibition) [3] | % response (lower = inhibition) [4] | % response (lower = inhibition) [5] | Structure (SMILES)
1 | 6.31 | inactive | 6.22 | 6.16 | 6.37 | – | – | – | – | – | CC1(C)Cc2c(sc(NC(=S)NC(=O)c3cccc(F)c3)c2C(=O)O)CO1
2 | 7.54 | – | 7.48 | 7.52 | 7.60 | 7.57 | – | – | – | – | CC1(C)Cc2c(sc(NC(=S)NC(=O)c3cccs3)c2C(=O)O)CO1
3 | – | inactive | – | – | – | – | inactive | inactive | inactive | inactive | COc1ccccc1C(=O)NC(=S)Nc1sc2c(c1C(=O)O)CC(C)(C)OC2
4 | 6.83 | – | 6.88 | 6.96 | 7.01 | 6.86 | – | – | – | – | Cc1ccc(C(=O)NC(=S)Nc2sc3c(c2C(=O)O)CC(C)(C)OC3)cc1
5 | 6.86 | – | 6.71 | 6.79 | 6.66 | 6.84 | – | – | – | – | CC(C)(C)C1Cc2c(sc(NC(=S)NC(=O)c3ccccc3)c2C(=O)O)CO1 (stereo not given)
6 | 7.23 | – | 7.04 | 7.21 | 7.09 | 7.23 | – | – | – | – | CC1(C)Cc2c(sc(NC(=S)NC(=O)c3ccco3)c2C(=O)O)CO1
7 | 7.25 | – | 7.00 | 7.30 | 7.48 | 7.10 | – | – | – | – | O=C(NC(=S)Nc1sc2c(c1C(=O)O)CC1(CCCC1)OC2)c1ccccc1
8 | 6.83 | – | 6.95 | 6.77 | 7.11 | 6.88 | – | – | – | – | CC1(C)Cc2c(sc(NC(=S)NC(=O)c3ccc(F)cc3)c2C(=O)O)CO1
9 | – | inactive | – | – | 5.30 | – | inactive | inactive | inactive | – | CC1(C)Cc2c(sc(NC(=S)Nc3ccccc3)c2C(=O)O)CO1
10 | – | inactive | 5.84 | 5.77 | 6.49 | – | inactive | – | – | – | Cc1cccc(C(=O)NC(=S)Nc2sc3c(c2C(=O)O)CC(C)(C)OC3)c1
11 | – | inactive | – | – | – | – | inactive | inactive | inactive | inactive | CC1(C)Cc2c(sc(NC(=S)NC(=O)c3cccc(Br)c3)c2C(=O)O)CO1
12 | 6.71 | – | 6.67 | 6.69 | 6.67 | 6.61 | – | – | – | – | COc1ccc(C(=O)NC(=S)Nc2sc3c(c2C(=O)O)CC(C)(C)OC3)cc1
13 | 7.32 | – | 7.21 | 7.21 | 7.16 | 7.32 | – | – | – | – | CC1(C)CCc2sc(NC(=S)NC(=O)c3ccccc3)c(C(=O)O)c2C1
14 | 6.34 | – | 6.37 | 6.35 | 6.50 | 6.34 | – | – | – | – | CC1(C)Cc2c(sc(NC(=S)NC(=O)c3ccccc3F)c2C(=O)O)CO1
15 | – | – | 5.88 | 5.81 | 5.90 | 5.93 | inactive | – | – | – | CC1(C)Cc2c(sc(NC(=S)NC(=O)c3ccccc3Br)c2C(=O)O)CO1
16 | 6.31 | – | 6.09 | 6.18 | 6.34 | 6.40 | – | – | – | – | CC1(C)Cc2c(sc(NC(=S)NC(=O)C3CCCCC3)c2C(=O)O)CO1
17 | – | inactive | 6.53 | 6.60 | 6.49 | – | inactive | – | – | – | COc1cccc(C(=O)NC(=S)Nc2sc3c(c2C(=O)O)CC(C)(C)OC3)c1
18 | 6.41 | – | 6.32 | 6.27 | 6.37 | 6.34 | – | – | – | – | CC1(C)Cc2c(sc(NC(=S)NC(=O)c3ccc(Br)cc3)c2C(=O)O)CO1
19 | 6.36 | – | 6.31 | 6.45 | 6.28 | 6.43 | – | – | – | – | Cc1ccccc1C(=O)NC(=S)Nc1sc2c(c1C(=O)O)CC(C)(C)OC2
20 | 7.28 | – | 7.34 | 7.29 | 7.46 | 7.34 | – | – | – | – | CCC1(C)Cc2c(sc(NC(=S)NC(=O)c3ccccc3)c2C(=O)O)CO1 (stereo not given)
